The values that follow come from ChEMBL document CHEMBL1909046, “DrugMatrix in vitro pharmacology data”.

C-C chemokine receptor type 5, sequence (P51681 whole entry): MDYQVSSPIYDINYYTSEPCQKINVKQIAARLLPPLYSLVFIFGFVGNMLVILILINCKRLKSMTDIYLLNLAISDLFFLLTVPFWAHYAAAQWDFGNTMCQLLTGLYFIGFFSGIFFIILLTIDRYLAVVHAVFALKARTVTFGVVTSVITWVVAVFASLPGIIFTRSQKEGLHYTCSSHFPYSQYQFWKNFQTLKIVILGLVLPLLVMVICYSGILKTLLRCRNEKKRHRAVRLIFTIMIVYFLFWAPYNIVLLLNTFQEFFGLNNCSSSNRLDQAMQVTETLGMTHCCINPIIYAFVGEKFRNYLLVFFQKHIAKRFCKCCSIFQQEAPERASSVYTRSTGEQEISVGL
Beta-2 adrenergic receptor, sequence (P07550 whole entry): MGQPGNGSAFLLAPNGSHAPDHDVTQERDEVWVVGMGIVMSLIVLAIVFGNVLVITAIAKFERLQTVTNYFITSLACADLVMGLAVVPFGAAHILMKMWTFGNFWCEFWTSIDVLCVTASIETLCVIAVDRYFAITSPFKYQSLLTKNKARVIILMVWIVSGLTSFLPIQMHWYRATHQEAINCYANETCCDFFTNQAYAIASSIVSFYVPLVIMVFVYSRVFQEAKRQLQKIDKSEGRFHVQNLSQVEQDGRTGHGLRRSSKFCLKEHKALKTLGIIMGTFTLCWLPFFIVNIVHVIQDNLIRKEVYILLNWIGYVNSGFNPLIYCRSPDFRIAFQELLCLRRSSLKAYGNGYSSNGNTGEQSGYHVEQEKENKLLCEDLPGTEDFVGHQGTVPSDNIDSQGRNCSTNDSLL
Vascular endothelial growth factor receptor 1, sequence (P17948 whole entry): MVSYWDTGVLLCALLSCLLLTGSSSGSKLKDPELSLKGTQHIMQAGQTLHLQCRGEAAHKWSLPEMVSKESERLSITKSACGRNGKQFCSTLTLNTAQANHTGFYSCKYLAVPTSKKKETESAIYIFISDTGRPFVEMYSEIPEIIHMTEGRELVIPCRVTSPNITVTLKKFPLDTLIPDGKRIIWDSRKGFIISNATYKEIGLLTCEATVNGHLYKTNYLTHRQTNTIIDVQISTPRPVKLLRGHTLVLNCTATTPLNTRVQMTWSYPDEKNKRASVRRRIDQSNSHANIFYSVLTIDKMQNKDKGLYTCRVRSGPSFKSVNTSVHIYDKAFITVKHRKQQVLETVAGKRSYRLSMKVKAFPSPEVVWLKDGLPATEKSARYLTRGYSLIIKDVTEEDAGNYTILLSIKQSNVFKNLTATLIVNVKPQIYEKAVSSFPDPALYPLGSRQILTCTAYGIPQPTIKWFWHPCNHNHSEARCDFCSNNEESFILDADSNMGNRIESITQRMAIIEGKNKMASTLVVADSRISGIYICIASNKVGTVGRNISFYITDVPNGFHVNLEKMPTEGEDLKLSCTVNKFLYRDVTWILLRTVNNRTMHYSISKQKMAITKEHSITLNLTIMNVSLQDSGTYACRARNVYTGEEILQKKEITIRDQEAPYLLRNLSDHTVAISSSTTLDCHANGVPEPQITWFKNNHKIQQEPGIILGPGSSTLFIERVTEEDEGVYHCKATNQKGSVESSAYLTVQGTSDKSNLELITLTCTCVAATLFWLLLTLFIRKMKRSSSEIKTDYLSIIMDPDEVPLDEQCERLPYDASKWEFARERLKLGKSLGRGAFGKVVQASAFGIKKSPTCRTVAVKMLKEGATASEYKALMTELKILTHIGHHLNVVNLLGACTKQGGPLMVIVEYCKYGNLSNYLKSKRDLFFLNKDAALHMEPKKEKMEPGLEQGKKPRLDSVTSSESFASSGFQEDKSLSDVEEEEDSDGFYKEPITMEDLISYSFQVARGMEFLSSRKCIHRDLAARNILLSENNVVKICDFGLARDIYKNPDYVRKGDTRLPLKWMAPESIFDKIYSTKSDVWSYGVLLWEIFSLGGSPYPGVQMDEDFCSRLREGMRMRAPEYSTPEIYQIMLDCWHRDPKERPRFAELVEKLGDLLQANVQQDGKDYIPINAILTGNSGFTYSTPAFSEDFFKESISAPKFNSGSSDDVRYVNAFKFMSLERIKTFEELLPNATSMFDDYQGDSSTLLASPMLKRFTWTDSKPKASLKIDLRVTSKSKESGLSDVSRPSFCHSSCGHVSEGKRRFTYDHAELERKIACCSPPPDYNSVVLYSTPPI

One assay deals with D(3) dopamine receptor (Homo sapiens, UniProt P35462). Put plainly: DRUGMATRIX: Dopamine D3 radioligand binding (ligand: [3H] Spiperone). As to conditions: cho. The assay is classed as cell membranes, CHO, Membrane.
D(3) dopamine receptor, sequence (P35462 whole entry): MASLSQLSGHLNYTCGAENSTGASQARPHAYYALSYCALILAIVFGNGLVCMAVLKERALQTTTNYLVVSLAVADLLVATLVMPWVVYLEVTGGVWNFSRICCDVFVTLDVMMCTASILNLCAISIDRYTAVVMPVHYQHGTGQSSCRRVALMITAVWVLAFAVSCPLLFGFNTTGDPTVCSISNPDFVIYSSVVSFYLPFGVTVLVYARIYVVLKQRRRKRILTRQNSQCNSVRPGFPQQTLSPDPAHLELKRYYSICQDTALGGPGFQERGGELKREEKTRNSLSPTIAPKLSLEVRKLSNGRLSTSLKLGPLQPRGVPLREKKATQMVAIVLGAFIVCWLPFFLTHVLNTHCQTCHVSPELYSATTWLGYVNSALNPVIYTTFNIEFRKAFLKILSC
What is called IC50 is the concentration needed to halve the response being measured. On to `COc1cccc(C2(O)CCCCC2CN(C)C)c1` (stereo unspecified) [TRAMADOL], for which the IC50 entry is listed as “Not Active”.

`CN1CCN2c3ccccc3Cc3ccccc3C2C1` (stereo unspecified) [MIANSERIN]: the concentration for half-maximal inhibition (IC50) entry is “Not Active”.

Still in this assay, the particulars now being: read-out: IC50.
Turning to `CN(C)CCCN1c2ccccc2CCc2ccc(Cl)cc21` [CLOMIPRAMINE], the IC50 worked out at 139 nM.

Staying with this assay, now noted: read-out: Ki.
As a reminder, the Ki is a measure of affinity in units of concentration, obtained from inhibition or displacement. For the compound `CN(C)CCCN1c2ccccc2CCc2ccc(Cl)cc21` [CLOMIPRAMINE], the Ki turned out to be 47 nM.

The target of a further assay is T1, Alpha-2A adrenergic receptor (Homo sapiens, UniProt P08913). Note: in other assays of this panel Not Active means under 50% inhibition at 10 µM.
T1 sequence (P08913 whole entry): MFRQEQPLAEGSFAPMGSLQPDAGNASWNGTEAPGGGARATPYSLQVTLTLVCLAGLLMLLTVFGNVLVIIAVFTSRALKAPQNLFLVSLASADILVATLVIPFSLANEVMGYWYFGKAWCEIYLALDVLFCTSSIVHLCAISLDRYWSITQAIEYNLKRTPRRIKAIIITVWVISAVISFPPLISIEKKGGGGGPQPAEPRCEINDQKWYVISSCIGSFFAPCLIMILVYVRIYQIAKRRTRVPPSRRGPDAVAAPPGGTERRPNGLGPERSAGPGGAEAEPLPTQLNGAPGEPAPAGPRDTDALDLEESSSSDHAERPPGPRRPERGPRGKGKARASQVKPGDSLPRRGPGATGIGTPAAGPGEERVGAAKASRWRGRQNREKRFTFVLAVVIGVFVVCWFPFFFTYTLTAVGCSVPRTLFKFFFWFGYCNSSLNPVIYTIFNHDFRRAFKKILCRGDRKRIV
Assay: not given
The assay is classed as cell membranes, Sf9, Membrane. As to conditions: read-out: IC50.
For the compound `CN(C)CCCN1c2ccccc2CCc2ccc(Cl)cc21` [CLOMIPRAMINE], the IC50 was 1410 nM.

The assay is the same for the next values; noted with them: sf9.
Take `COc1cccc(C2(O)CCCCC2CN(C)C)c1` (stereo unspecified) [TRAMADOL]: the IC50 result was “Not Active”.

For the next assay, the target named is Mitogen-activated protein kinase 14 (Homo sapiens, UniProt Q16539).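 Note: inhibition of p38alpha enzyme activity in a biochemical kinase assay, with myelin basic protein serving as substrate; in other assays of this panel Not Active means under 50% inhibition at 10 µM.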
Mitogen-activated protein kinase 14, sequence (Q16539 whole entry): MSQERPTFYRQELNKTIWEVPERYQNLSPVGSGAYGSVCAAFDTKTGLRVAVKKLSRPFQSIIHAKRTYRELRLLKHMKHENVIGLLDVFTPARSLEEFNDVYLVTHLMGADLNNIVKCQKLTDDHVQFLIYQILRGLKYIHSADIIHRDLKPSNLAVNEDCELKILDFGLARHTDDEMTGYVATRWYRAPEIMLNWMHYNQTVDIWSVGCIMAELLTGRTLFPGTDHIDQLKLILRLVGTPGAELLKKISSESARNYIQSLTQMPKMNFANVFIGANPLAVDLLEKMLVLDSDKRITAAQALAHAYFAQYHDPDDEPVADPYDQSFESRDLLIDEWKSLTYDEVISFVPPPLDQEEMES
Assay: not given
Set-up: species or system Escherichia coli.
Conditions: not given
As for `COc1cccc(C2(O)CCCCC2CN(C)C)c1` (stereo unspecified) [TRAMADOL], the IC50 result was “Not Active”.

As to `CN1CCN2c3ccccc3Cc3ccccc3C2C1` (stereo unspecified) [MIANSERIN], the IC50 entry is “Not Active”.

As to `CN(C)CCCN1c2ccccc2CCc2ccc(Cl)cc21` [CLOMIPRAMINE], the IC50 result was “Not Active”.

The target of another assay is T2, Adenosine receptor A1 (Homo sapiens, UniProt P30542).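 Note: radioligand binding assay at the adenosine A1 receptor, with DPCPX serving as the labelled ligand; in other assays of this panel Not Active means under 50% inhibition at 10 µM.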
T2 sequence (P30542 whole entry): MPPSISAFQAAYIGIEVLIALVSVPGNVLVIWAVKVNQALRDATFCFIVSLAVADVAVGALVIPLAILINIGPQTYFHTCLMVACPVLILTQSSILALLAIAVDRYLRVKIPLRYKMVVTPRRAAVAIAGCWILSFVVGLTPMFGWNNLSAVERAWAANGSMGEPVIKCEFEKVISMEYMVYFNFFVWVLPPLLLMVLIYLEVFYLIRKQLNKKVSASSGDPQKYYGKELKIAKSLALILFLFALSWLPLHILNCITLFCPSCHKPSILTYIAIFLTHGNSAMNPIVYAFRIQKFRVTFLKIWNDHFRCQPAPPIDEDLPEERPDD
Assay: not given
The assay is classed as cell membranes, CHO, Membrane. Particulars: cho.
For the compound `COc1cccc(C2(O)CCCCC2CN(C)C)c1` (stereo unspecified) [TRAMADOL], the IC50 result is “Not Active”.

For `CN1CCN2c3ccccc3Cc3ccccc3C2C1` (stereo unspecified) [MIANSERIN], the IC50 result is listed as “Not Active”.

For the compound `CN(C)CCCN1c2ccccc2CCc2ccc(Cl)cc21` [CLOMIPRAMINE], the IC50 entry is “Not Active”.

In a further assay the target is 5-hydroxytryptamine receptor 2B (Homo sapiens, UniProt P41595). Note: in other assays of this panel Not Active means under 50% inhibition at 10 µM.
5-hydroxytryptamine receptor 2B, sequence (P41595 whole entry): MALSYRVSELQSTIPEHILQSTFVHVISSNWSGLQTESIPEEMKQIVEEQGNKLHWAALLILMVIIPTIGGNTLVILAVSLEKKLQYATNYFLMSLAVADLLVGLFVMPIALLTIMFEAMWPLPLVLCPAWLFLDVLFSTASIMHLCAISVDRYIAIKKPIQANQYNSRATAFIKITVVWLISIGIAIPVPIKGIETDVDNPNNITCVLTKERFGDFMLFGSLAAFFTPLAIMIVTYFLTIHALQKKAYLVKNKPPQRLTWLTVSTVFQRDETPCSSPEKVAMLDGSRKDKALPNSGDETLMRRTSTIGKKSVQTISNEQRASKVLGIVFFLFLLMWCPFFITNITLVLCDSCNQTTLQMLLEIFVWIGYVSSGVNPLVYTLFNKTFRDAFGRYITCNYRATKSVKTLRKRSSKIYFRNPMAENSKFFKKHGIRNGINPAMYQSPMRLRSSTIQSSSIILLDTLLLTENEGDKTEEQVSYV
Assay: not given
The assay is classed as cell membranes, CHO-K1, Membrane. As to conditions: cho-k1.
As for `COc1cccc(C2(O)CCCCC2CN(C)C)c1` (stereo unspecified) [TRAMADOL], the IC50 entry is on record as “Not Active”.

The assay is the same for the next values; noted with them: read-out: IC50.
As for `CN(C)CCCN1c2ccccc2CCc2ccc(Cl)cc21` [CLOMIPRAMINE], the IC50 was determined as 239 nM.

The assay is the same for the next values; noted with them: read-out: Ki.
For the compound `CN(C)CCCN1c2ccccc2CCc2ccc(Cl)cc21` [CLOMIPRAMINE], the Ki worked out at 152 nM.

A further assay deals with Aldo-keto reductase family 1 member B1 (Rattus norvegicus, UniProt P07943).
Assay: not given
The assay is classed as tissue-based, Lens of camera-type eye.
Conditions: not given
`COc1cccc(C2(O)CCCCC2CN(C)C)c1` (stereo unspecified) [TRAMADOL]: the IC50 entry is listed as “Not Active”.

`CN1CCN2c3ccccc3Cc3ccccc3C2C1` (stereo unspecified) [MIANSERIN]: the IC50 entry is reported as “Not Active”.

For the compound `CN(C)CCCN1c2ccccc2CCc2ccc(Cl)cc21` [CLOMIPRAMINE], the IC50 entry is on record as “Not Active”.

The next assay concerns the target C-C chemokine receptor type 5 (Homo sapiens, UniProt P51681). Note: in other assays of this panel Not Active means under 50% inhibition at 10 µM.
Assay: not given
It is filed as cell membranes, Membrane. As to conditions: hek293.
In the case of `COc1cccc(C2(O)CCCCC2CN(C)C)c1` (stereo unspecified) [TRAMADOL], the IC50 entry is recorded as “Not Active”.

As to `CN1CCN2c3ccccc3Cc3ccccc3C2C1` (stereo unspecified) [MIANSERIN], the IC50 result is “Not Active”.

For `CN(C)CCCN1c2ccccc2CCc2ccc(Cl)cc21` [CLOMIPRAMINE], the IC50 entry is “Not Active”.

In a further assay the target is T3, Cholecystokinin receptor type A (Homo sapiens, UniProt P32238). Note: in other assays of this panel Not Active means under 50% inhibition at 10 µM.
T3 sequence (P32238 whole entry): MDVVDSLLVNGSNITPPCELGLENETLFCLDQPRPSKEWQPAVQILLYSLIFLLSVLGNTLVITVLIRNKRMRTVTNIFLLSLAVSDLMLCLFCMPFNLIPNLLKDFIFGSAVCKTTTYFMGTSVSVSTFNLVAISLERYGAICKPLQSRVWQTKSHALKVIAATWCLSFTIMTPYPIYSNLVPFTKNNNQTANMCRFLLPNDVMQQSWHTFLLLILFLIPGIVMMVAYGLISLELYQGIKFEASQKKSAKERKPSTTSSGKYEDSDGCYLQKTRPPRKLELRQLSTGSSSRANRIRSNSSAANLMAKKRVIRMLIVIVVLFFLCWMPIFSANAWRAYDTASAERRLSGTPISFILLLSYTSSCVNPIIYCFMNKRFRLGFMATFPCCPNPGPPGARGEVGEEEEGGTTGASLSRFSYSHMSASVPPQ
Assay: not given
It is filed as cell membranes, Membrane. Particulars: 1321-n1.
On to `COc1cccc(C2(O)CCCCC2CN(C)C)c1` (stereo unspecified) [TRAMADOL], for which the IC50 result is “Not Active”.

For `CN1CCN2c3ccccc3Cc3ccccc3C2C1` (stereo unspecified) [MIANSERIN], the IC50 result is recorded as “Not Active”.

On to `CN(C)CCCN1c2ccccc2CCc2ccc(Cl)cc21` [CLOMIPRAMINE], for which the IC50 entry is “Not Active”.

Another assay addresses Beta-2 adrenergic receptor (Homo sapiens, UniProt P07550). Put plainly: DRUGMATRIX: Adrenergic beta2 radioligand binding (ligand: [3H] CGP-12177). The assay is classed as cell membranes, Membrane. Particulars: cho; Not Active = under 50% inhibition at 10 µM.
`COc1cccc(C2(O)CCCCC2CN(C)C)c1` (stereo unspecified) [TRAMADOL]: the IC50 entry is “Not Active”.

In the case of `CN1CCN2c3ccccc3Cc3ccccc3C2C1` (stereo unspecified) [MIANSERIN], the IC50 result is given as “Not Active”.

As for `CN(C)CCCN1c2ccccc2CCc2ccc(Cl)cc21` [CLOMIPRAMINE], the IC50 result is given as “Not Active”.

A further assay deals with Substance-P receptor (Homo sapiens, UniProt P25103).
Substance-P receptor, sequence (P25103 whole entry): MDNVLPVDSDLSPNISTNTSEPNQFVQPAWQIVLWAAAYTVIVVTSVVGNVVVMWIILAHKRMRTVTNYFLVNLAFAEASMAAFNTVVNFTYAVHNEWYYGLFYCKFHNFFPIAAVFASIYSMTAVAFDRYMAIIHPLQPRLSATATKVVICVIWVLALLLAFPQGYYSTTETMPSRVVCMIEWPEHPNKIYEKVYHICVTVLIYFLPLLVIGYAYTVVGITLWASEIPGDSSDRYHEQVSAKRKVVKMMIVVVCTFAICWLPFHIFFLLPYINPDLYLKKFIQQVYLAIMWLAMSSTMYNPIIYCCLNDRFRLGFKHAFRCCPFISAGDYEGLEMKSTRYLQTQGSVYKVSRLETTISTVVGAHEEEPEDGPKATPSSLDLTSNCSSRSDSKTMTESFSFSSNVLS
Assay: not given
The assay is classed as cell membranes, CHO, Membrane. As to conditions: cho.
`COc1cccc(C2(O)CCCCC2CN(C)C)c1` (stereo unspecified) [TRAMADOL]: the 50% inhibitory concentration (IC50) result is given as “Not Active”.

For `CN1CCN2c3ccccc3Cc3ccccc3C2C1` (stereo unspecified) [MIANSERIN], the IC50 result is given as “Not Active”.

For `CN(C)CCCN1c2ccccc2CCc2ccc(Cl)cc21` [CLOMIPRAMINE], the IC50 result was “Not Active”.

A further assay addresses Vascular endothelial growth factor receptor 1 (Homo sapiens, UniProt P17948).
Assay: not given
The assay is classed as cell-based. Particulars: huvec.
Consider `COc1cccc(C2(O)CCCCC2CN(C)C)c1` (stereo unspecified) [TRAMADOL], for which the IC50 entry is listed as “Not Active”.

Take `CN1CCN2c3ccccc3Cc3ccccc3C2C1` (stereo unspecified) [MIANSERIN]: the IC50 entry was “Not Active”.

Regarding `CN(C)CCCN1c2ccccc2CCc2ccc(Cl)cc21` [CLOMIPRAMINE], the IC50 result is recorded as “Not Active”.

A further assay has as its target T4, Polyunsaturated fatty acid lipoxygenase ALOX15 (Oryctolagus cuniculus, UniProt P12530).
T4 sequence (P12530 whole entry): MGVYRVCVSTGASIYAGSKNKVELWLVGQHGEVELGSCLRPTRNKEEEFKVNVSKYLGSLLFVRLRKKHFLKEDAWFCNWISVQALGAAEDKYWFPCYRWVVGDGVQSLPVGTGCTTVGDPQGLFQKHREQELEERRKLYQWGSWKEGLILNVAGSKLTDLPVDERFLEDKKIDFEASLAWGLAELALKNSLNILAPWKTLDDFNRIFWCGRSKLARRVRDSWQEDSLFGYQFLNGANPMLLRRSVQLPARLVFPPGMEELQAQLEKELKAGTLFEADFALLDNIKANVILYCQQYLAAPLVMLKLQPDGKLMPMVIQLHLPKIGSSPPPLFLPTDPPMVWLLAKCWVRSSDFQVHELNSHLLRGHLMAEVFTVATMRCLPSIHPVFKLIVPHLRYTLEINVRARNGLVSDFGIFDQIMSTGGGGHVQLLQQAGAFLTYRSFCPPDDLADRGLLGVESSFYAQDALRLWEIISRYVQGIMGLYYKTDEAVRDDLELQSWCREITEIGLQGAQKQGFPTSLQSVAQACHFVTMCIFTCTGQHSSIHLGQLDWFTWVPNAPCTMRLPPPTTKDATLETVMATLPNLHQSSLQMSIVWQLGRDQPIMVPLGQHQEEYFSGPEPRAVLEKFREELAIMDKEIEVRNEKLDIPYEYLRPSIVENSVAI
Put plainly: biochemical. It is filed as tissue-based, Reticulocytes. Particulars: reticulocytes.
For the compound `COc1cccc(C2(O)CCCCC2CN(C)C)c1` (stereo unspecified) [TRAMADOL], the IC50 result is given as “Not Active”.

With `CN1CCN2c3ccccc3Cc3ccccc3C2C1` (stereo unspecified) [MIANSERIN], the IC50 entry is given as “Not Active”.

Turning to `CN(C)CCCN1c2ccccc2CCc2ccc(Cl)cc21` [CLOMIPRAMINE], the IC50 result is “Not Active”.
